Experimental data taken from publication PMC9230455 (Pharmaceuticals, 2022).

Legend:
[1] = target: dipeptidyl peptidase-4 (DPP-4) (UniProt P27487)
[2] = test system: impaired glucose tolerance (IGT) mice; experiment: Oral glucose tolerance test in impaired glucose tolerance (IGT) mice; assay type: in vivo, mouse; parameters: AUC of Day 1, Blood glucose level (120 min): unit not given beside the values; conditions: for Blood Glucose Value of 30 min: 30 min after 2.5 g/kg glucose gavage; for Blood Glucose Value of 30 min / Blood Glucose Value of 60 min / Blood Glucose Value of 90 min / Blood Glucose Value of 120 min / Fasting Blood Glucose Level: M ± SD, n = 8; for Blood Glucose Value of 60 min: 60 min after 2.5 g/kg glucose gavage; for Blood Glucose Value of 90 min: 90 min after 2.5 g/kg glucose gavage; for Blood Glucose Value of 120 min: 120 min after 2.5 g/kg glucose gavage
Procedure: After in vitro experiments were conducted to investigate the DPP-4 inhibition ability and receptor affinity of GLP-1RAs, further in vivo experiments were conducted to compare the hypoglycemic effects of GLP-1RAs on impaired glucose tolerance (IGT) mice. The model of IGT mice was established by a one-week injection of streptozotocin, compared with the normal glucose tolerance (NGT) group, the increase in blood glucose in the IGT group after intragastric glucose administration was statistically significant, and the increase in blood glucose in each experimental group was similar after grouping (as shown in Table A2). Each group was fasted for 9 h before the last administration, fasting blood glucose (FBG) was measured one hour after administration, and then an oral glucose tolerance test (OGTT) was performed.
After fasting for 9 h, the OGTT was performed again the next day. The duration of GLP-1RAs was measured using the second day’s OGTT. […] The blood glucose level of the G1 group was lower than that of the vehicle group at each time point, and the difference was statistically significant. […] The blood sugar of IGT mice can be well controlled at a level equivalent to that of NGT mice, and the effect time of the drug was more than 24 h.
Male KM mice age 6–8 weeks with weight of 18–25 g were selected and injected with STZ at a dose of 40 mg/kg per mouse to establish mouse model of IGT. One week after the injection, OGTT was performed. Blood was collected from the tail tip of each mouse to measure the blood glucose concentration. Mice with blood glucose level increase greater than 200% after intragastric administration of glucose were selected. […] The NGT and vehicle groups were treated with normal saline, and the other groups were treated with the corresponding protein solution diluted to 20 µmol/L with normal saline. Each mouse was injected with 25 µL/10 g body weight. The FBG of each group was measured one hour after the last administration, and then 2.5 g/kg glucose solution was administered by gavage immediately, and blood glucose was measured at 30, 60, 90, and 120 min after gavage. The FBG was measured the same time the next day, and the glucose solution was administered by gavage again at 2.5 g/kg. Blood glucose was measured 30, 60, 90, and 120 min after gavage. The statistical software GraphPad Prism 8.0, was used to process the data. The blood glucose level at each time point was compared between the groups using two-way analysis of variance. p < 0.05 was considered statistically different.

[3] = first day OGTT, 20 µmol/L protein, 25 µL/10 g injected

UniProt P27487, sequence (P27487 whole entry): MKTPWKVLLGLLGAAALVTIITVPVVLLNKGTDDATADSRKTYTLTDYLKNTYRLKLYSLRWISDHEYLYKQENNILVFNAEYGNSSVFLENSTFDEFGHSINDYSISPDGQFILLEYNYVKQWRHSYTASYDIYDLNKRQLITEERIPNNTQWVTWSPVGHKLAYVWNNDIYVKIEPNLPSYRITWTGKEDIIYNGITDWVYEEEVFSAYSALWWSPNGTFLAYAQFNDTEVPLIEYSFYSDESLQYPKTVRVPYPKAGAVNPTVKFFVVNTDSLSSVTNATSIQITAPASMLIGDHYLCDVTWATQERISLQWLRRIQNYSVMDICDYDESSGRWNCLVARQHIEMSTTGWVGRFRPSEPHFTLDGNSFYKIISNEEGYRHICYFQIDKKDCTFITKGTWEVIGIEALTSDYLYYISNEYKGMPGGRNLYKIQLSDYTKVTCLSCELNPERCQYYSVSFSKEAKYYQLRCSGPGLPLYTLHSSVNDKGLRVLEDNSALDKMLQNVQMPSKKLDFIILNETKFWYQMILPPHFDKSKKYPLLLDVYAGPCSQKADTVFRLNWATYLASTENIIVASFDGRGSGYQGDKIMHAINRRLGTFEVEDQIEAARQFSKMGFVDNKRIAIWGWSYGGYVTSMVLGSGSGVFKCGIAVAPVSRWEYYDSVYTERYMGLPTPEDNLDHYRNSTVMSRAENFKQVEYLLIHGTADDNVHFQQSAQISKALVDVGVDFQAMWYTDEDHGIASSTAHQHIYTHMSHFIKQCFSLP

Compound: G4 (GLP-1 receptor agonist: GLP-1 Ser18Cys with the antiparallel β lamellar domain of superoxide dismutase at the C-terminus, without the linker) (designed binder)
- Area Under Curve of the residual percentage (ELISA) during digestion with excess DPP-4, up to 24 h, 30 °C, PBS pH 7.4 [1]: 2.47

Compound: human GLP-1 (glucagon-like peptide-1)
- Area Under Curve of the residual percentage (ELISA) during digestion with excess DPP-4, up to 24 h, 30 °C, PBS pH 7.4 [1]: 1.02

Compound: G2 (GLP-1 receptor agonist: antiparallel β lamellar domain of superoxide dismutase at the amino terminus of GLP-1) (designed binder)
- Area Under Curve of the residual percentage (ELISA) during digestion with excess DPP-4, up to 24 h, 30 °C, PBS pH 7.4 [1]: 1.34

Compound: G1 (GLP-1 receptor agonist: GLP-1 Val33Cys, linker GCGGGGGG, antiparallel β lamellar domain of superoxide dismutase at the C-terminus) (designed binder)
- Area Under Curve of the residual percentage (ELISA) during digestion with excess DPP-4, up to 24 h, 30 °C, PBS pH 7.4 [1]: 5.14

Compound: CC[C@H](C)[C@H](NC(=O)[C@H](Cc1ccccc1)NC(=O)[C@H](CCC(=O)O)NC(=O)[C@H](CCCCN)NC(=O)[C@H](C)NC(=O)[C@H](C)NC(=O)[C@H](CCC(N)=O)NC(=O)CNC(=O)[C@H](CCC(=O)O)NC(=O)[C@H](CC(C)C)NC(=O)[C@H](Cc1ccc(O)cc1)NC(=O)[C@H](CO)NC(=O)[C@H](CO)NC(=O)[C@@H](NC(=O)[C@H](CC(=O)O)NC(=O)[C@H](CO)NC(=O)[C@@H](NC(=O)[C@H](Cc1ccccc1)NC(=O)[C@@H](NC(=O)CNC(=O)[C@H](CCC(=O)O)NC(=O)[C@H](C)NC(=O)[C@@H](N)Cc1c[nH]cn1)[C@@H](C)O)[C@@H](C)O)C(C)C)C(=O)N[C@@H](C)C(=O)N[C@@H](Cc1c[nH]c2ccccc12)C(=O)N[C@@H](CC(C)C)C(=O)N[C@H](C(=O)N[C@@H](CCCCN)C(=O)NCC(=O)N[C@@H](CCCNC(=N)N)C(N)=O)C(C)C [GLP-1, Glucagon-like peptide-1]
- AUC of Day 1, Blood glucose level (120 min) ([2]; first day OGTT in IGT mice, 0-120 min, vehicle 60.54, NGT 40.57): 47.54
- Blood Glucose Value of 30 min [2, 3]: 18.2 ± 1.9 mmol/L
- Blood Glucose Value of 60 min [2, 3]: 13.6 ± 1.7 mmol/L
- Blood Glucose Value of 90 min [2, 3]: 9.3 ± 2.3 mmol/L
- Blood Glucose Value of 120 min [2, 3]: 7.9 ± 1.3 mmol/L
- Fasting Blood Glucose Level ([2]; first day, IGT mice (STZ, male KM), fasted 9 h, one hour after last administration, 20 µmol/L protein, 25 µL/10 g injected): 4.9 ± 0.7 mmol/L
- Fasting Blood Glucose Level ([2]; second day (no new dose), IGT mice fasted 9 h): 5.9 ± 1.1 mmol/L
- Blood Glucose Value of 30 min ([2]; second day OGTT): 25.1 ± 4.1 mmol/L
- Blood Glucose Value of 60 min ([2]; second day OGTT): 18.2 ± 3.4 mmol/L
- Blood Glucose Value of 90 min ([2]; second day OGTT): 11.6 ± 1.9 mmol/L
- Blood Glucose Value of 120 min ([2]; second day OGTT): 9.2 ± 1.3 mmol/L
